One test deals with T1, cyclin D1/cdk 4 enzyme (Homo sapiens, UniProt P11802).
T1 construct: made in house; host or cells: Sf9 insect cells, recombinant baculovirus
Briefly: CDK4 ELISA kinase assay (phospho-Rb ser 795 detection). It counts as biochemical. The procedure, abridged:
(§1)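 Sf9-derived cyclin/CDK, 200 μM ATP, immobilized GST-Rb; 30° C/1 h. Detection: phospho-Ser795 Ab, HRP, TMB, OD450.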
On the technique in general: ELISA stands for enzyme-linked immunosorbent assay.

Another test concerns the target T2, cyclin E/CDK2 enzyme (Homo sapiens, UniProt P24941).
T2 construct: made in house; host or cells: Sf9 insect cells, recombinant baculovirus
Nature of the test: CDK2 ELISA kinase assay (phospho-Rb ser 795 detection). It counts as biochemical. The procedure, abridged:
as §1

A further test addresses T3, cyclin B/CDK1 enzyme (Homo sapiens, UniProt P06493).
T3 construct: purchased New England BioLabs; host or cells: Sf9 insect cells, recombinant baculovirus
Nature of the test: CDK1 ELISA kinase assay (phospho-Rb ser 795 detection). It counts as biochemical. The procedure, abridged: as §1

Another test concerns BT474. Nature of the test: Cytotoxicity assay (SRB), BT474. The class given is cell-based. Summed up:
(§2)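 Protein staining with sulforhodamine B after cold TCA fixation served as the survival endpoint (A540, relative to untreated cells). Before staining, cells were incubated with compound at 37 °C, 7% CO2 for 3 days, or 6 days for BT474.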

In a further test the test system is HCT-116. Nature of the test: Cytotoxicity assay (SRB), HCT-116. The class given is cell-based. The note with it: HCT116 cells, SRB, read-out: In Vitro Cellular Activity IC50 HCT116. The procedure, abridged: as §2
In the next test the test system is LoVo. Briefly: Cytotoxicity assay (SRB), LoVo. The class given is cell-based. As to conditions: LoVo cells, SRB, read-out: In Vitro Cellular Activity IC50 LOVO. The procedure, abridged:
as §2

The subject of a further test is MCF-7. Briefly: Cytotoxicity assay (SRB), MCF-7. It counts as cell-based. The note with it: MCF-7 cells, SRB, read-out: In Vitro Cellular Activity IC50 MCF-7. Summed up:
as §2

[1] abbreviates: In Vitro Enzyme Assays, 200 μM ATP, read-out: CDK4 IC50.
Setting [2] is: In Vitro Enzyme Assays, read-out: CDK2 IC50.
[3] abbreviates: In Vitro Enzyme Assays, read-out: CDK1 IC50.
[4] abbreviates: Homo sapiens, BT-474, 144 h, BT474 cells, 6 days, SRB; read-out: In Vitro Cellular Activity IC50 BT474.
[5] abbreviates: Homo sapiens, HCT-116, 72 h, 3 days.
Setting [6] is: Homo sapiens, LoVo, 72 h, 3 days.
The mark [7] stands for this setting: Homo sapiens, MCF7, 72 h, 3 days.
Where [8] appears, read: Homo sapiens, BT-474, 144 h, BT474 cells, SRB, 6 days; read-out: In Vitro Cellular Activity IC50 BT474.
[9] abbreviates: Homo sapiens, HCT-116, 72 h, three days.
[10] abbreviates: Homo sapiens, LoVo, 72 h, three days.
[11] abbreviates: Homo sapiens, MCF7, 72 h, three days.
[12] abbreviates: In Vitro Enzyme Assay, cyclin D1/cdk 4, read-out: CDK4 IC50.
[13] abbreviates: In Vitro Enzyme Assay, cyclin E/CDK2, read-out: CDK2 IC50.
[14] abbreviates: In Vitro Enzyme Assay, cyclin B/CDK1, read-out: CDK1 IC50.

Where two headings read alike, the source gives them in different places.

The values below come from patent US7713994B2 (Wyeth LLC, priority 2005, dated 2010).

T1 sequence (P11802 whole entry, species assumed): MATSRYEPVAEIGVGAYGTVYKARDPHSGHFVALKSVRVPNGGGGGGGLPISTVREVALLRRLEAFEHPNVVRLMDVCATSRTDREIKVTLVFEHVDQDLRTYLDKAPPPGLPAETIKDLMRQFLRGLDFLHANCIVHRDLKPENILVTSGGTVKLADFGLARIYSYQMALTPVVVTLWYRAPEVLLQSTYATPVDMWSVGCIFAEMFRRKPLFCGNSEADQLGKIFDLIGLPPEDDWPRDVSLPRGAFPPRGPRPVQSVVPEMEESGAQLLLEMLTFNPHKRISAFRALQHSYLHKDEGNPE
T1 sequence (P24385 whole entry partner, species assumed): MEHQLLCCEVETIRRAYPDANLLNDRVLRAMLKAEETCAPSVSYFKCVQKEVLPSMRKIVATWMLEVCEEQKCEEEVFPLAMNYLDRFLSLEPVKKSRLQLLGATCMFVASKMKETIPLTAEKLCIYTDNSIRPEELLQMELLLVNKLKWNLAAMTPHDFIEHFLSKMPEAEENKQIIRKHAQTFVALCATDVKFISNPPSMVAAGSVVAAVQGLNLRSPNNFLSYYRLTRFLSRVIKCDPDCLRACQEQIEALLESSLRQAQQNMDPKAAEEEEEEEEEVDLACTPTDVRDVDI
T3 sequence (P06493 whole entry): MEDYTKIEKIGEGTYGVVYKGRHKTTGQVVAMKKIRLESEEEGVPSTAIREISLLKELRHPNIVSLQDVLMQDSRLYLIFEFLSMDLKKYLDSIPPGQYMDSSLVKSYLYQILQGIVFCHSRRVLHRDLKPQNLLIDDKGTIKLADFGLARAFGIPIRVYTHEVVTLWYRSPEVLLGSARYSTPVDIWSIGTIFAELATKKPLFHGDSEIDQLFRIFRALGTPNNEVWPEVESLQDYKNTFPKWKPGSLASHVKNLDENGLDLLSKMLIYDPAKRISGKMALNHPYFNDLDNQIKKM
T3 sequence (P14635 whole entry partner): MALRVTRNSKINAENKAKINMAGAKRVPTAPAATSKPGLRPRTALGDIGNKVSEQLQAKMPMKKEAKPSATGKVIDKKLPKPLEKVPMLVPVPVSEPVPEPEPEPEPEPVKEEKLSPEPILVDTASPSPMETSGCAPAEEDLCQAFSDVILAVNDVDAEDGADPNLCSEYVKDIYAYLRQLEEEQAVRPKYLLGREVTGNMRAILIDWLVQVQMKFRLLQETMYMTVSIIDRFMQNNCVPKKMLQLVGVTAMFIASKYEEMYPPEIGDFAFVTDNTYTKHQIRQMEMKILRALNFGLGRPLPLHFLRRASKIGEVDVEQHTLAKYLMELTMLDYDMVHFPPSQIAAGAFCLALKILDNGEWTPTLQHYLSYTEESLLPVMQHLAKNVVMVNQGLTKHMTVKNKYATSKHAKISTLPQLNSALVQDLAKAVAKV

A word on the IC50: it is the midpoint of a concentration-inhibition curve. As for `O=C1NC(=O)c2ccc(-c3cccs3)cc2/C1=C/Nc1ccc(CN2CCC[C@H]2CO)cc1` (stereo in doubt) [Example 438, 4-{[4-(2-Hydroxymethyl-pyrrolidin-1-ylmethyl)-phenylamino]-methylene}-6-thiophen-2-yl-4H-isoquinoline-1,3-dione], the IC50 at cyclin D1/cdk 4 enzyme (setting [1]) is 0.04 µM; at cyclin E/CDK2 enzyme (setting [2]) it was > 50 µM; at cyclin B/CDK1 enzyme (setting [3]), > 50 µM; in the test on BT474 (setting [4]), 2.2 µM; with HCT-116 (setting [5]), 1.6 µM; in the test with LoVo (setting [6]), 1.6 µM. Also, in the test with MCF-7 (setting [7]), the IC50 was 1.8 µM.
As for `CN1CCN(c2ccc(N/C=C3\C(=O)NC(=O)c4ccc(-c5ccc(C#N)cc5)cc43)cc2)CC1` [Example 153, 4-(4-{[4-(4-Methyl-piperazin-1-yl)-phenylamino]-methylene}-1,3-dioxo-1,2,3,4-tetrahydro-isoquinolin-6-yl)-benzonitrile], the IC50 on cyclin D1/cdk 4 enzyme (setting [1]) turned out to be 0.8 µM; at cyclin E/CDK2 enzyme (setting [2]) it was 4.3 µM; on cyclin B/CDK1 enzyme (setting [3]), 4.3 µM; in the test with BT474 (setting [8]), 3.4 µM; in the test on HCT-116 (setting [9]), 1.1 µM; with LoVo (setting [10]), 3.7 µM. Further, the IC50 in the test with MCF-7 (setting [11]) is 3.4 µM.
As for `O=C1NC(=O)c2ccc(-c3ccccc3F)cc2C1=CNCc1ccc(O)c(O)c1` [Example 769, 4-[(3,4-Dihydroxy-benzylamino)-methylene]-6-(2-fluoro-phenyl)-4H-isoquinoline-3,3-dione], the half-maximal inhibitory concentration (IC50) at cyclin D1/cdk 4 enzyme (setting [12]) is 0.03 µM; at cyclin E/CDK2 enzyme (setting [13]) it was 3.9 µM; at cyclin B/CDK1 enzyme (setting [14]), 14.7 µM; in the test on BT474 (setting [4]), 17.9 µM; in the test with HCT-116 (setting [5]), 13.4 µM; in the test with LoVo (setting [6]) it was 15.5 µM. The IC50 in the test on MCF-7 (setting [7]) was determined as 17.9 µM.
In the case of “(4Z)-4-{[(3-Hydroxy-4-propoxybenzyl)amino]methylene}-6-thiene-3-ylisoquinoline-,3(2H,4H)-dione [Example 183]”, the IC50 was 0.11 µM on cyclin D1/cdk 4 enzyme (setting [1]); > 50 µM on cyclin E/CDK2 enzyme (setting [2]); > 50 µM at cyclin B/CDK1 enzyme (setting [3]); 13 µM in the test on BT474 (BT474 cells, SRB, 6 days; read-out: In Vitro Cellular Activity IC50 BT474); 8.4 µM with HCT-116 (three days); 12 µM in the test on LoVo (three days). The IC50 in the test with MCF-7 (three days) is 8.8 µM.
In the case of `O=C1NC(=O)c2ccc(Br)cc2/C1=C/Nc1ccc(CN2CCC[C@H]2CO)cc1` (stereo in doubt) [Example 437, 6-Bromo-4-{[4-(2-hydroxymethyl-pyrrolidin-1-ylmethyl)-phenylamino]-methylene}-4H-isoquinoline-1,3-dione], the IC50 was 0.75 µM at cyclin D1/cdk 4 enzyme (setting [1]); 36.3 µM at cyclin E/CDK2 enzyme (setting [2]); > 50 µM on cyclin B/CDK1 enzyme (setting [3]); 2.9 µM with BT474 (setting [4]); 3.7 µM in the test with HCT-116 (setting [5]); 3.6 µM in the test on LoVo (setting [6]). The IC50 in the test with MCF-7 (setting [7]) came to 3.1 µM.
For the molecule `CCCN1CCN(c2ccc(N/C=C3\C(=O)NC(=O)c4ccc(I)cc43)cc2)CC1` [Example 388, (4Z)-6-Iodo-4-({[4-(4-propylpiperazin-1-yl)phenyl]amino}methylene)isoquinoline-1,3(2H,4H)-dione], the IC50 on cyclin D1/cdk 4 enzyme (setting [1]) was 2 µM; on cyclin E/CDK2 enzyme (setting [2]), > 50 µM; on cyclin B/CDK1 enzyme (setting [3]), > 50 µM; in the test on BT474 (setting [8]) it was 3.9 µM; with HCT-116 (setting [9]), 2.7 µM; in the test on LoVo (setting [10]), 5.5 µM. Further, in the test on MCF-7 (setting [11]), the IC50 was 3.1 µM.
For the molecule `CN1CCCC1c1ccc(NC=C2C(=O)NC(=O)c3ccc(I)cc32)cc1` (stereo not drawn) [Example 361, 6-Iodo-4-{[4-(1-methyl-pyrrolidin-2-yl)-phenylamino]-methylene}-4H-isoquinoline-1,3-dione], the IC50 at cyclin D1/cdk 4 enzyme (setting [1]) turned out to be 0.22 µM; on cyclin E/CDK2 enzyme (setting [2]) it was 17.9 µM; at cyclin B/CDK1 enzyme (setting [3]), 45.5 µM; in the test on BT474 (setting [8]), 0.86 µM; with HCT-116 (setting [9]) it was 3.8 µM; with LoVo (setting [10]) it was 5.9 µM. In addition, the IC50 in the test on MCF-7 (setting [11]) was determined as 2.6 µM.
In the case of `O=C1NC(=O)c2ccc(I)cc2/C1=C/Nc1ccc(N2CCN(C3CCC3)CC2)cc1` [Example 392, (4Z)-4-({[4-(4-Cyclobutylpiperazin-1-yl)phenyl]amino}methylene)-6-iodoisoquinoline-1,3(2H,4H)-dione], the IC50 at cyclin D1/cdk 4 enzyme (setting [1]) was 0.69 µM; on cyclin E/CDK2 enzyme (setting [2]), 33.2 µM; on cyclin B/CDK1 enzyme (setting [3]) it was > 50 µM; with BT474 (setting [4]), 3.8 µM; in the test on HCT-116 (setting [5]), 2.5 µM; with LoVo (setting [6]), 4.8 µM. For the same molecule, the IC50 in the test with MCF-7 (setting [7]) was determined as 4.2 µM.
Regarding `COc1ccc(CNC=C2C(=O)NC(=O)c3ccc(C=Cc4ccccc4)cc32)cc1O` [Example 825, 4-[(3-Hydroxy-4-methoxy-benzylamino)-methylene]-6-styryl-4H-isoquinoline-1,3-dione], the IC50 is 0.02 µM on cyclin D1/cdk 4 enzyme (setting [12]); 36.3 µM at cyclin E/CDK2 enzyme (setting [13]); > 50 µM on cyclin B/CDK1 enzyme (setting [14]); 24.7 µM in the test with BT474 (setting [4]); 11.9 µM in the test with HCT-116 (setting [5]); 22.1 µM in the test on LoVo (setting [6]). In the test on MCF-7 (setting [7]), the IC50 was found to be 12.3 µM.
Consider `O=C1NC(=O)c2ccc(-c3cccc(Cl)c3)cc2C1=CNCc1ccc(O)c(O)c1` [Example 779, 6-(3-Chloro-phenyl)-4-[(3,4-dihydroxy-benzylamino)-methylene]-4H-isoquinoline-1,3-dione], for which the concentration for half-maximal inhibition (IC50) at cyclin D1/cdk 4 enzyme (setting [12]) is 0.74 µM; on cyclin E/CDK2 enzyme (setting [13]) it was 31.1 µM; on cyclin B/CDK1 enzyme (setting [14]), > 50 µM; with BT474 (setting [4]), 20.3 µM; in the test with HCT-116 (setting [5]) it was 15 µM; with LoVo (setting [6]), 14.1 µM. Also, the IC50 in the test on MCF-7 (setting [7]) turned out to be 12.7 µM.
Consider `COc1ccc(CNC=C2C(=O)NC(=O)c3ccc(-c4ccco4)cc32)cc1O` [Example 837, 6-Furan-2-yl-4-[(3-hydroxy-4-methoxy-benzylamino)-methylene]-4H-isoquinoline-1,3-dione], for which the half-inhibitory concentration (IC50) on cyclin D1/cdk 4 enzyme (setting [12]) is 0.02 µM; on cyclin E/CDK2 enzyme (setting [13]), 24.2 µM; on cyclin B/CDK1 enzyme (setting [14]) it was > 50 µM; with BT474 (setting [4]), 1.5 µM; with HCT-116 (setting [5]), 10.6 µM; in the test with LoVo (setting [6]), 8.5 µM. The IC50 in the test with MCF-7 (setting [7]) was 3.6 µM.
As for `CC#CC(=O)Nc1ccc(CN/C=C2\C(=O)NC(=O)c3ccc(I)cc32)cc1O` [Example 339, N-[2-Hydroxy-4-({[(Z)-(6-iodo-1,3-dioxo-2,3-dihydroisoquinolin-4(1H)-ylidene)methyl]amino}methyl)phenyl]but-2-ynamide], the IC50 at cyclin D1/cdk 4 enzyme (setting [1]) was determined as 0.07 µM; at cyclin E/CDK2 enzyme (setting [2]), 0.37 µM; on cyclin B/CDK1 enzyme (setting [3]), 0.82 µM; in the test with BT474 (setting [8]), 5.1 µM; in the test with HCT-116 (setting [9]), 10 µM; in the test on LoVo (setting [10]), 12 µM. For the same molecule, the IC50 in the test with MCF-7 (setting [11]) worked out at 16 µM.
On to `COc1cc(CN/C=C2\C(=O)NC(=O)c3ccc(Br)cc32)ccn1` [Example 222, (4Z)-6-Bromo-4-({[(2-methoxypyridin-4-yl)methyl]amino}methylene)isoquinoline-1,3(2H,4H)-dione], for which the IC50 on cyclin D1/cdk 4 enzyme (setting [1]) was 31.7 µM; at cyclin E/CDK2 enzyme (setting [2]), 6.1 µM; on cyclin B/CDK1 enzyme (setting [3]), > 50 µM; in the test with BT474 (setting [8]) it was 13 µM; in the test on HCT-116 (setting [9]), 14 µM; in the test on LoVo (setting [10]), 19 µM. Besides, in the test on MCF-7 (setting [11]), the IC50 was 13 µM.
Take `CN1CCC(N(C)c2ccc(N/C=C3\C(=O)NC(=O)c4ccc(Br)cc43)cc2)C1` (stereo not drawn) [Example 245, (4Z)-6-Bromo-4-[({4-[methyl(1-methylpyrrolidin-3-yl)amino]phenyl}amino)methylene]isoquinoline-1,3(2H,4H)-dione]: the IC50 at cyclin D1/cdk 4 enzyme (setting [1]) is 2 µM; on cyclin E/CDK2 enzyme (setting [2]) it was > 50 µM; on cyclin B/CDK1 enzyme (setting [3]) it was > 50 µM; in the test on BT474 (setting [8]), 8.4 µM; in the test on HCT-116 (setting [9]), 3.4 µM; in the test with LoVo (setting [10]), 6.6 µM. For the same molecule, the IC50 in the test on MCF-7 (setting [11]) was 3 µM.
`O=C1NC(=O)c2ccc(I)cc2/C1=C/Nc1ccc(C2CCCN2)cc1` (stereo not drawn) [Example 462, 6-Iodo-4-[(4-pyrrolidin-2-yl-phenylamino)-methylene]-4H-isoquinoline-1,3-dione]: the IC50 at cyclin D1/cdk 4 enzyme (setting [12]) was 0.42 µM; on cyclin E/CDK2 enzyme (setting [13]), > 50 µM; at cyclin B/CDK1 enzyme (setting [14]) it was > 50 µM; with BT474 (setting [4]) it was 4.8 µM; in the test on HCT-116 (setting [5]) it was 2.6 µM; in the test with LoVo (setting [6]) it was 3.6 µM. Further, in the test with MCF-7 (setting [7]), the IC50 came out at 3.5 µM.
